From ChEMBL document CHEMBL1201862, “PubChem BioAssay data set” (2004)
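Growth conditions: 96-well plates. Treatment: test compound, 48 hours, 5 concentrations. Analysis: linear interpolation between bracketing concentrations; unreached endpoints set to highest concentration. Here, GI50 denotes the concentration required for 50% inhibition of growth.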 Calls of active or inactive are those of the source. Rule as the data show it: active = GI50 up to about 1.1 µM and inactive = higher.

Tests used:
Assay in all cases: growth of human tumour cells (NCI), 48 h
SF-268 = system: SF-268
SR = system: SR
PC-3 = system: PC-3
MDA-MB-231 = system: MDA-MB-231
BT-549 = system: BT-549
MDA-MB-435 = system: MDA-MB-435
NCI-H226 = system: NCI-H226
RXF 393 = system: RXF 393
U-251 = system: U-251
NCI-H460 = system: NCI-H460
NCI-H522 = system: NCI-H522
SK-MEL-5 = system: SK-MEL-5
A549 = system: A549
SNB-75 = system: SNB-75
Hs-578T = system: Hs-578T
MOLT-4 = system: MOLT-4
SK-OV-3 = system: SK-OV-3
HOP-62 = system: HOP-62
HL-60 = system: HL-60
LOX IMVI = system: LOX IMVI

| SMILES | GI50 (SF-268) | GI50 (SR) | GI50 (PC-3) | GI50 (MDA-MB-231) | GI50 (BT-549) | GI50 (MDA-MB-435) | GI50 (NCI-H226) | GI50 (RXF 393) | GI50 (U-251) | GI50 (NCI-H460) | GI50 (NCI-H522) | GI50 (SK-MEL-5) | GI50 (A549) | GI50 (SNB-75) | GI50 (Hs-578T) | GI50 (MOLT-4) | GI50 (SK-OV-3) | GI50 (HOP-62) | GI50 (HL-60) | GI50 (LOX IMVI) |
| --- | --- | --- | --- | --- | --- | --- | --- | --- | --- | --- | --- | --- | --- | --- | --- | --- | --- | --- | --- | --- |
| CC1C(=O)N=C2C(=CN(Cc3ccccc3)c3ccccc32)C(=O)N1C (configuration not stated) | > 100 µM (inactive) | 4.26 µM (inactive) | > 100 µM (inactive) | > 100 µM (inactive) | > 100 µM (inactive) | > 100 µM (inactive) | > 100 µM (inactive) | > 100 µM (inactive) | > 100 µM (inactive) | > 100 µM (inactive) | 29.1 µM (inactive) | > 100 µM (inactive) | > 100 µM (inactive) | > 100 µM (inactive) | – | – | – | – | – | – |
| CC12CCC(CC1=O)C2(C)CCC(N)=O (configuration not stated) | > 100 µM (inactive) | – | > 100 µM (inactive) | > 100 µM (inactive) | > 100 µM (inactive) | > 100 µM (inactive) | > 100 µM (inactive) | > 100 µM (inactive) | > 100 µM (inactive) | – | > 100 µM (inactive) | > 100 µM (inactive) | > 100 µM (inactive) | – | > 100 µM (inactive) | > 100 µM (inactive) | > 100 µM (inactive) | > 100 µM (inactive) | – | – |
| CC[N+](C)(CC)CCN1C(=O)c2ccccc2S1(=O)=O | > 100 µM (inactive) | – | > 100 µM (inactive) | > 100 µM (inactive) | > 100 µM (inactive) | > 100 µM (inactive) | > 100 µM (inactive) | > 100 µM (inactive) | > 100 µM (inactive) | > 100 µM (inactive) | > 100 µM (inactive) | > 100 µM (inactive) | > 100 µM (inactive) | > 100 µM (inactive) | > 100 µM (inactive) | 39.8 µM (inactive) | > 100 µM (inactive) | > 100 µM (inactive) | > 100 µM (inactive) | > 100 µM (inactive) |
| CC(C)(Cl)C(Br)CC/C(=C/CBr)CBr.CC(C)(Cl)C(Br)CC/C(=C\CBr)CBr (configuration not stated) | 2.14 µM (inactive) | – | 7.45 µM (inactive) | 1.89 µM (inactive) | 2.77 µM (inactive) | 1.87 µM (inactive) | 24.6 µM (inactive) | 4.22 µM (inactive) | 2 µM (inactive) | 3.61 µM (inactive) | 1.68 µM (inactive) | 2.87 µM (inactive) | 12.5 µM (inactive) | 2.48 µM (inactive) | 4.69 µM (inactive) | 1.14 µM (inactive) | 15 µM (inactive) | 5.93 µM (inactive) | 0.757 µM (active) | – |
| COc1cc(C2SCC(=O)N2NC(=O)c2ccc(NC(C)=O)cc2OC)ccc1O (configuration not stated) | 23.7 µM (inactive) | > 100 µM (inactive) | 37.4 µM (inactive) | – | > 100 µM (inactive) | > 100 µM (inactive) | – | 39.3 µM (inactive) | – | – | > 100 µM (inactive) | – | 54.2 µM (inactive) | 23.7 µM (inactive) | > 100 µM (inactive) | > 100 µM (inactive) | 6.27 µM (inactive) | 4.12 µM (inactive) | 54.2 µM (inactive) | > 100 µM (inactive) |
| CN1C(=O)C(C(=O)Nc2ccccn2)C2C[C@@]1(C)Oc1ccccc12 (some centres not stated) | > 100 µM (inactive) | – | > 100 µM (inactive) | > 100 µM (inactive) | > 100 µM (inactive) | > 100 µM (inactive) | > 100 µM (inactive) | > 100 µM (inactive) | > 100 µM (inactive) | > 100 µM (inactive) | > 100 µM (inactive) | > 100 µM (inactive) | > 100 µM (inactive) | > 100 µM (inactive) | > 100 µM (inactive) | 62.7 µM (inactive) | > 100 µM (inactive) | > 100 µM (inactive) | > 100 µM (inactive) | > 100 µM (inactive) |
| COC(=O)c1ccccc1C1CN=NC12Cc1cc(C)cc(C)c1C2=O (configuration not stated) | > 100 µM (inactive) | – | 37.5 µM (inactive) | 14.4 µM (inactive) | 63.4 µM (inactive) | 36.4 µM (inactive) | 99.3 µM (inactive) | > 100 µM (inactive) | 64.1 µM (inactive) | 45.5 µM (inactive) | 13.3 µM (inactive) | 31.3 µM (inactive) | 45.5 µM (inactive) | 23.1 µM (inactive) | 86.3 µM (inactive) | 32.1 µM (inactive) | > 100 µM (inactive) | > 100 µM (inactive) | 22 µM (inactive) | 20 µM (inactive) |
| Cc1cc2[nH]c3c(C#N)c4c(c(=O)n3c2cc1C)CCCC4 | 79.3 µM (inactive) | – | > 100 µM (inactive) | > 100 µM (inactive) | > 100 µM (inactive) | 67.3 µM (inactive) | > 100 µM (inactive) | – | 40.2 µM (inactive) | > 100 µM (inactive) | > 100 µM (inactive) | 32.6 µM (inactive) | > 100 µM (inactive) | – | 86.1 µM (inactive) | > 100 µM (inactive) | 14.1 µM (inactive) | – | 96.6 µM (inactive) | > 100 µM (inactive) |
| O=C(CCCCCCCCC(=O)NN1C(=O)/C(=C\c2ccc(O)c(O)c2)SC1c1ccc(Cl)cc1)NN1C(=O)/C(=C\c2ccc(O)c(O)c2)SC1c1ccc(Cl)cc1 (configuration not stated) | 8.67 µM (inactive) | 2.08 µM (inactive) | 20.6 µM (inactive) | 35.6 µM (inactive) | > 47.3 µM (inactive) | 66.8 µM (inactive) | 59.3 µM (inactive) | 15.8 µM (inactive) | 15.7 µM (inactive) | 30.6 µM (inactive) | 2.87 µM (inactive) | 30.6 µM (inactive) | 21.3 µM (inactive) | 29.9 µM (inactive) | – | 1.82 µM (inactive) | 22.6 µM (inactive) | 10.3 µM (inactive) | – | 13.6 µM (inactive) |
| CCOP(=O)(OCC)/C(=C/c1ccccc1)CC(C)=O | > 100 µM (inactive) | – | > 100 µM (inactive) | > 100 µM (inactive) | > 100 µM (inactive) | > 100 µM (inactive) | > 100 µM (inactive) | > 100 µM (inactive) | > 100 µM (inactive) | > 100 µM (inactive) | – | > 100 µM (inactive) | > 100 µM (inactive) | > 100 µM (inactive) | > 100 µM (inactive) | > 100 µM (inactive) | > 100 µM (inactive) | > 100 µM (inactive) | 22.1 µM (inactive) | > 100 µM (inactive) |
| COc1ccccc1CNC1=Nc2ccncc2S(=O)(=O)N1c1ccccc1 | – | 92.7 µM (inactive) | 31 µM (inactive) | – | > 100 µM (inactive) | > 100 µM (inactive) | > 100 µM (inactive) | 2.47 µM (inactive) | 52.1 µM (inactive) | 60.4 µM (inactive) | 25.1 µM (inactive) | 34 µM (inactive) | > 100 µM (inactive) | – | 74.8 µM (inactive) | 69 µM (inactive) | > 100 µM (inactive) | – | 41.1 µM (inactive) | > 100 µM (inactive) |
| c1ccc(C/C(=N\Nc2nc3ccccc3[nH]2)c2ccccn2)cc1 | 0.0444 µM (active) | – | < 0.01 µM (active) | 0.0396 µM (active) | 0.248 µM (active) | 0.385 µM (active) | < 0.0279 µM (active) | 0.166 µM (active) | < 0.0221 µM (active) | 0.126 µM (active) | < 0.01 µM (active) | 0.0408 µM (active) | 0.069 µM (active) | 0.403 µM (active) | 0.879 µM (active) | < 0.01 µM (active) | 0.033 µM (active) | < 0.0232 µM (active) | – | 0.119 µM (active) |
| CN(Cc1cnc2nc(N)nc(N)c2n1)c1ccc(C(=O)NCCS(=O)(=O)O)cc1 | > 100 µM (inactive) | 67.6 µM (inactive) | > 100 µM (inactive) | > 100 µM (inactive) | > 100 µM (inactive) | > 100 µM (inactive) | > 100 µM (inactive) | – | > 100 µM (inactive) | > 100 µM (inactive) | > 100 µM (inactive) | > 100 µM (inactive) | > 100 µM (inactive) | > 100 µM (inactive) | > 100 µM (inactive) | > 100 µM (inactive) | > 100 µM (inactive) | > 100 µM (inactive) | > 100 µM (inactive) | > 100 µM (inactive) |
| COc1ccc(-c2cc(=O)c3c(O)c(OC)c(O)cc3o2)cc1O | 10.7 µM (inactive) | – | 10 µM (inactive) | 5.51 µM (inactive) | 19.3 µM (inactive) | 0.582 µM (active) | 35 µM (inactive) | 9.4 µM (inactive) | 5.26 µM (inactive) | 3.3 µM (inactive) | 1.97 µM (inactive) | 3.41 µM (inactive) | 6.4 µM (inactive) | 3.65 µM (inactive) | 3.08 µM (inactive) | 3.19 µM (inactive) | 6.28 µM (inactive) | 6.9 µM (inactive) | 1.25 µM (inactive) | 3.51 µM (inactive) |
| COc1ccc(-c2cc(=O)c3c(OC)c(OC)c(OC)c(OC)c3o2)cc1OC [NOBILETIN] | 66.8 µM (inactive) | 59.7 µM (inactive) | – | 34.5 µM (inactive) | 62.7 µM (inactive) | 45.1 µM (inactive) | 91.6 µM (inactive) | 61.5 µM (inactive) | 71 µM (inactive) | 52.8 µM (inactive) | 28.6 µM (inactive) | 18.6 µM (inactive) | 42.8 µM (inactive) | 30.5 µM (inactive) | 21.1 µM (inactive) | 25.2 µM (inactive) | 61.7 µM (inactive) | 44.7 µM (inactive) | 17.3 µM (inactive) | 30.1 µM (inactive) |
